Data on two compounds can be found in ChEMBL document CHEMBL1146429, “Stellettamide B, a new indolizidine alkaloid from a sponge of the genus Stelletta” (1997).

One assay relates to Candida albicans. In words: Antimicrobial activity against Candida albicans at 25 ug/mL by paper-disk method. Particulars: read-out: IZ. It is filed as functional.
Assay [1] can be described thus: Induction of cleavage of rRNA at 50 ug/mL.
A short description of assay [2]: Induction of cleavage of mRNA at 50 ug/mL.

The source made the active and inactive calls. The rule behind the calls is not given here.

For `CC(C)=CCC[C@@H](C)/C=C/C=C(\C)C(=O)NC[C@@H]1CC[N+]2(C)CCCC[C@H]12` (stereo partly specified) [STELLETTAMIDE B], in the assay with Candida albicans, the zone of inhibition at 25 µg/mL was determined as 4 mm. The result in assay [1] and in assay [2] was Active.
On to `CC(C)=CCC[C@@H](C)/C=C/C=C(\C)C(=O)NC(=N)NCCCCNC(=N)N` [STELLETTADINE A], for which, in the assay on Candida albicans, the zone of inhibition at 25 µg/mL stood at 9 mm. Besides, the outcome in assay [1] and in assay [2] was Active.
